According to ChEMBL document CHEMBL3507680, “University of Dundee, Gates Library screen for HepG2 cell viability”:

Assay: Human HepG2 cell viability assay in 384 well format
Assay type: toxicity, cell-based
Parameters: dose 125 nL, time 70.5 hour; concentration not given beside the values
Settings: HepG2 cells, read-out: Inhibition

| SMILES | cytotoxicity at 70.5 h [%] |
| --- | --- |
| COc1nc2c(cc1C(=O)NCCc1nc(C)c(C(=O)O)s1)CCC2 | 10 |
| Cc1noc(C)c1CN1CCCCC1c1nc(-c2ccccc2)no1 (stereo unspecified) | -9.69 |
| CCOCCN1CCN(C(C)C(=O)Nc2ccnn2C(C)C)CC1 (stereo unspecified) | -3.46 |
| CCN(CC)C(=O)c1ccc(Cl)c(NC(=O)c2cc[nH]n2)c1 | 13.3 |
| Cc1nccc(NCc2cncc3c2CCN(S(C)(=O)=O)C3)n1 | 1.9 |
| COCC(=O)N1CCC(C(=O)N(C)C(C)c2ccon2)CC1 (stereo unspecified) | -2.4 |
| Cc1cccc(CN2C[C@@H]3CN(C(=O)c4ccco4)C[C@@H]3C2=O)n1 | -13.1 |
| COc1ccc(CCC2CCCN(C(=O)CCc3cc(O)no3)C2)cc1 (stereo unspecified) | -4.3 |
| COc1ccccc1C(O)CNc1nccc(-c2ccc(C)nc2C)n1 (stereo unspecified) | -14 |
| Cc1cnc2c(c1NCc1cccnc1)c(=O)n(C)c(=O)n2C | -0.599 |
| CN(Cc1ccc(Cl)s1)C(=O)Nc1ccc(N(C)C)nc1 | -11.5 |
| Cc1cnn(CC(C)NCc2nc(-c3ccccn3)no2)c1 (stereo unspecified) | -7.46 |
| CCN1Cc2cc(F)ccc2N(CC(O)C(F)(F)F)CCC1=O (stereo unspecified) | -8.41 |
| CN(C)CC1(O)CCCN(C(=O)Cn2nc3ccccc3n2)CC1 (stereo unspecified) | 11.1 |
| CCC1CCCCN1CCc1ccncc1 (stereo unspecified) | 29.9 |
| Cc1cc(=O)n(CC(=O)NC(C)C)c(Nc2ccc(F)c(C)c2)n1 | 23.2 |
| CC(=O)Nc1ccc(CNc2cccc(OCCF)c2)cc1 | -5.76 |
| O=C(NCc1ccco1)N(CCCO)C1CCCc2ccccc21 (stereo unspecified) | -5.76 |
| O=C(NC1CCCN(c2ccccc2Cl)C1)c1nc(=O)[nH][nH]1 (stereo unspecified) | 25.3 |
| CCCc1cncnc1N1CCC(NCc2ccncc2)CC1 | -13.1 |
| COCCNC(=O)Nc1ccc(-n2cncn2)c(F)c1 | 40.1 |
| O=C(Nc1nnc(C2CC2)s1)NC1CCOc2ccccc21 (stereo unspecified) | 22.9 |
| O=C(NCCCN1CCCCC1)c1n[nH]c(=O)c2ccccc12 | 25 |

| SMILES | cytotoxicity at 70.5 h [%] |
| --- | --- |
| Cc1cc(N2CCCC(OC(=O)CCc3cnn(C)c3)C2)nc(C)n1 (stereo unspecified) | -11.2 |
| CN(Cc1noc(C2CC2)n1)C1CCN(CCc2cnn(C)c2)C1 (stereo unspecified) | 14.4 |
| O=C(CCN1CCCN(c2nccs2)CC1)NCC1CCCCC1 | -8.1 |
| N#CCc1ccc(OCC(=O)NS(=O)(=O)c2ccc(Cl)s2)cc1 | -7.69 |
| COCCN1CCN(CC(=O)NC2(C#N)CCCC2)CC1C (stereo unspecified) | 7.99 |
| N#CCCN(Cc1cccnc1)C(=O)c1cc(Cl)c[nH]1 | -7.86 |
| Cc1nsc(C(=O)NCCc2ccc(S(N)(=O)=O)cc2)n1 | -5.58 |
| CCn1cc2c(n1)CN(Cc1nccs1)CC2COCC1CC1 (stereo unspecified) | -11 |
| O=C(CSCC1CC1)N1CCCN(c2ccc(F)cc2)CC1 | -7.69 |
| Cc1noc(C)c1S(=O)(=O)NC(=O)COc1ccc(C(C)C)cc1 | -9.11 |
| CCn1cnnc1CNC(=O)NCC(C(C)C)N1CCOCC1 (stereo unspecified) | -13 |
| CCOC(=O)c1sc(NC(=O)CN(C)S(C)(=O)=O)c(C#N)c1C | 26.2 |
| Cc1ccc(C(=O)N2CCc3ncc(Cn4cccn4)n3CC2)cn1 | -6.29 |
| C1CCN(CCO[C@@H]2CC[C@H]3[C@H]2OCCN3CC2CCOCC2)C1 | -120 |
| CN(Cc1nccs1)c1nc(-c2ccccn2)nc2c1CCNCC2 | -4.75 |
| CN(C)CCOCC1CN(C(=O)c2ccnnc2)Cc2ccnn2C1 (stereo unspecified) | -14 |
| CCN(Cc1ccccc1)C(=O)CN1CCCC(Cn2cncn2)C1 (stereo unspecified) | -4.31 |
| Cn1nccc1-c1ncc2c(c1C(=O)O)CCN(Cc1ccccc1)C2 | 11.6 |
| Cc1nc(-c2ccccc2C)n(CC(=O)NC2CCCC2)n1 | 19 |
| Cc1cc(NCCO)nc(N2CCCC2)c1C#N | 2.8 |
| O=S(=O)(c1c(F)cccc1F)N1CCC(Cn2cccn2)CC1 | -11.8 |
| CC(C)n1c(C2CCCN(CC(=O)NC3CC3)C2)nc2ccccc21 (stereo unspecified) | -1.26 |
| CCn1nc(C)c(CN(CCOC)Cc2ccccn2)c1C | -6.94 |
